How the values were obtained:
[1] = biological target: T1, human GPR119 (hGPR119) (Homo sapiens, UniProt Q8TDV5); assay: cAMP accumulation assay (cAMP Gs dynamic HTRF kit); format: cell-based; details: CHO-K1 cells stably expressing hGPR119, 4-parameter fit; for Emax: 1 h, % activity normalized to Max/Min controls; for EC50: cAMP accumulation
T1 construct: expressed in transfected cells
T1 sequence (Q8TDV5 1-335): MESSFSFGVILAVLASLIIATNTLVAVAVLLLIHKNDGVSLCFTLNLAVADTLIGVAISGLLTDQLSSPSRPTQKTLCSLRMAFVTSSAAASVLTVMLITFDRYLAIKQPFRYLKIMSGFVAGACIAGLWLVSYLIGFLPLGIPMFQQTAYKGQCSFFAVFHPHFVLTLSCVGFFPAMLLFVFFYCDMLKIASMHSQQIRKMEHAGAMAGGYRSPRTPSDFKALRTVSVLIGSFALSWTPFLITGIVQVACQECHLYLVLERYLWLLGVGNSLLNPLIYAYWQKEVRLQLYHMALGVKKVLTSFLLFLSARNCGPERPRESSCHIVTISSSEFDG
Summary of the method: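 Read-out is HTRF 665/620 nm ratio after 1 h detection at ambient temperature, converted to % activity against positive and negative controls, EC50 and Max activity by 4-parameter fit. Compounds were titrated onto ~10,000 thawed hGPR119-CHO-K1 cells/well for 60 min at 37° C/5% CO2.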

[2] = In vivo plasma levels in mice after oral gavage; parameters: species or system C57BL/6J mice; details: mouse, 30 mpk oral gavage, 7 h post-dose; for concentration at 7 h: male, C57BL/6J, plasma, 30 mg/kg, read-out: Exposure Total (plasma); for Exposure unbound (plasma): total exposure x free fraction from plasma protein binding
Protocol: Male C57BL/6J mice 10-12 weeks old were dosed with test article or vehicle [0.25% (w/v) methylcellulose, 5% (v/v) Polysorbate 80, and 0.02% (w/v) sodium lauryl sulfate in Hanks' Balanced Salt solution (all final concentrations)] by oral gavage at a volume of 10 mL/kg. Animals were euthanized with carbon dioxide 7-8 h post dose. Blood was collected for measurement of plasma concentrations of test article. Unbound exposure was calculated by multiplying the measured total exposure by the free fraction as assessed from plasma protein binding.
Plasma protein binding to isotonic phosphate buffer (PBS) containing 10% C57 BL/6 mouse plasma was determined using equilibrium dialysis of plasma spiked with test article (2 μM) against a dialysis buffer (100 mM sodium phosphate and 150 mM NaCl). At the end of the dialysis (4 hr), aliquots of the plasma and buffer were processed by protein precipitation for LC-MS/MS analysis to quantitate the test article.

Emax [1] [%] | EC50 [1] [nM] | concentration at 7 h [2] [nM] | Exposure unbound (plasma) [2] [nM] | SMILES
100 to 130 | 100 to 1000 | 551 | 1.1 | O=C(NC[C@H](O)[C@@H](O)[C@H](O)[C@H](O)CO)C1CN(C(=O)Cc2ccc(OCCCC3CCN(c4ncc(Cl)cn4)CC3)cc2F)C1 (racemic) [Example 37, 1-[2-[4-[3-[1-(5-chloropyrimidin-2-yl)-4-piperidyl]propoxy]-2-fluoro-phenyl]acetyl]-N-[rac-(2S,3R,4R,5R)-2,3,4,5,6-pentahydroxyhexyl]azetidine-3-carboxamide]
≥ 130 | ≤ 100 | 668 | 0.7 | O=C(Cc1ccc(OCCCC2CCN(c3ncc(Cl)cn3)CC2)cc1F)N1CC(CNC(CO)(CO)CO)C1 [Example 44, 2-[4-[3-[1-(5-chloropyrimidin-2-yl)-4-piperidyl]propoxy]-2-fluoro-phenyl]-1-[3-[[[2-hydroxy-1,1-bis(hydroxymethyl)ethyl]amino]methyl]azetidin-1-yl]ethanone]
100 to 130 | ≤ 100 |  |  | O=C(Cc1ccc(OCCCC2CCN(c3ncc(Cl)cn3)CC2)cc1F)N1CC[C@@H](CNCC(CO)(CO)CO)C1 [Example 147, 2-[4-[3-[1-(5-chloropyrimidin-2-yl)-4-piperidyl]propoxy]-2-fluoro-phenyl]-1-[(3S)-3-[[[3-hydroxy-2,2-bis(hydroxymethyl)propyl]amino]methyl]pyrrolidin-1-yl]ethanone]
100 to 130 | ≤ 100 |  |  | O=C(NC(CO)(CO)CO)[C@@H]1CCN(C(=O)Cc2ccc(OCCCC3CCN(c4ncc(Cl)cn4)CC3)cc2F)C1 [Example 102, (3R)-1-[2-[4-[3-[1-(5-chloropyrimidin-2-yl)-4-piperidyl]propoxy]-2-fluoro-phenyl]acetyl]-N-[2-hydroxy-1,1-bis(hydroxymethyl)ethyl]pyrrolidine-3-carboxamide]
100 to 130 | 100 to 1000 |  |  | O=C(Cc1ccc(OCCC[C@@H]2[C@H]3CN(c4ncc(Cl)cn4)C[C@@H]23)cc1F)N1CC(CNC[C@H](O)[C@@H](O)[C@H](O)[C@H](O)CO)C1 [Example 113, 2-[4-[3-[(1R,5S)-3-(5-chloropyrimidin-2-yl)-3-azabicyclo[3.1.0]hexan-6-yl]propoxy]-2-fluoro-phenyl]-1-[3-[[[(2S,3R,4R,5R)-2,3,4,5,6-pentahydroxyhexyl]amino]methyl]azetidin-1-yl]ethanone]
100 to 130 | ≤ 100 |  |  | CCCc1cnc(N2CCC(CCCOc3cc(F)c(CC(=O)N4CC(CNCC(O)(CO)CO)C4)c(F)c3)CC2)nc1 [Example 75, 2-(2,6-difluoro-4-(3-(1-(5-propylpyrimidin-2-yl)piperidin-4-yl)propoxy)phenyl)-1-(3-(((2,3-dihydroxy-2-(hydroxymethyl)propyl)amino)methyl)azetidin-1-yl)ethan-1-one]
100 to 130 | 100 to 1000 |  |  | O=C(Cc1ccc(OCCCC2CCN(c3ncc(Cl)cn3)CC2)cc1F)NC(CO)(CO)CO [Example 5, 2-[4-[3-[1-(5-chloropyrimidin-2-yl)-4-piperidyl]propoxy]-2-fluoro-phenyl]-N-[2-hydroxy-1,1-bis(hydroxymethyl)ethyl]acetamide]
100 to 130 | 100 to 1000 |  |  | CCOc1cnc(N2CCC(CCCOc3ccc(CC(=O)N4CC(CNC[C@H](O)[C@@H](O)[C@H](O)[C@H](O)CO)C4)c(F)c3)CC2)nc1 (racemic) [Example 80, 2-[4-[3-[1-(5-ethoxypyrimidin-2-yl)-4-piperidyl]propoxy]-2-fluoro-phenyl]-1-[3-[[[rac-(2S,3R,4R,5R)-2,3,4,5,6-pentahydroxyhexyl]amino]methyl]azetidin-1-yl]ethanone]

Source: patent US20230061736A1, “GPR119 AGONISTS” (Kallyope, Inc., priority 2019, published 2023)
